From PMC4513223 (Clinical Pharmacokinetics, 2015)
Read-outs that look alike come from different tables or passages of the source.

Key:
[1] = Non-compartmental plasma pharmacokinetics after a single oral filgotinib dose; format: in vivo; details: male, human
[2] = format: in vivo, human; details: for Tmax / AUC(0-t) / Cmax / concentration at 12 h / concentration at 24 h: oral
[3] = Population pharmacokinetic model; format: in vivo, human; details: estimate (% RSE)
[4] = test system: JAK1 (IL-6-induced STAT1 phosphorylation); format: cell-based, human; details: sigmoid Emax model, common to filgotinib and metabolite; estimate (% RSE)
JAK1 = details: human whole blood; cited from earlier work

Which results are given for `O=C(Nc1nc2cccc(-c3ccc(CN4CCS(=O)(=O)CC4)cc3)n2n1)C1CC1` [Filgotinib]?
AUC(0-inf) ([1]; 10 mg): 136 ng·h/mL; Cmax ([1]; 10 mg): 35.7 ng/mL; Tmax ([1]; 10 mg): 1 h; half-life ([1]; 10 mg): 6.38 h; AUC(0-inf) ([1]; 25 mg): 348 ng·h/mL; Cmax ([1]; 25 mg): 83 ng/mL; Tmax ([1]; 25 mg): 2.5 h; half-life ([1]; 25 mg): 5.72 h; AUC(0-inf) ([1]; 50 mg): 771 ng·h/mL; Cmax ([1]; 50 mg): 247 ng/mL; Tmax ([1]; 50 mg): 2 h; half-life ([1]; 50 mg): 5.28 h; AUC(0-inf) ([1]; 100 mg): 1740 ng·h/mL; Cmax ([1]; 100 mg): 565 ng/mL; Tmax ([1]; 100 mg): 2 h; half-life ([1]; 100 mg): 4.91 h; AUC(0-inf) ([1]; 200 mg): 4840 ng·h/mL; Cmax ([1]; 200 mg): 1160 ng/mL; Tmax ([1]; 200 mg): 3 h; half-life ([1]; 200 mg): 5.68 h; Tmax ([2]; male, human, plasma): 0.5 to 5 h; AUC(0-t) ([2]; male, human, plasma, 25 mg): 346 ng·h/mL; Cmax ([2]; male, human, plasma, 25 mg): 144 ng/mL; Tmax ([2]; male, human, plasma, 25 mg): 0.5 h; concentration at 12 h ([2]; male, human, plasma, 25 mg): 3.75 ng/mL; AUC(0-t) ([2]; male, human, plasma, 50 mg): 758 ng·h/mL; Cmax ([2]; male, human, plasma, 50 mg): 211 ng/mL; Tmax ([2]; male, human, plasma, 50 mg): 1.5 h; concentration at 12 h ([2]; male, human, plasma, 50 mg): 9.52 ng/mL; AUC(0-t) ([2]; male, human, plasma, 100 mg): 2380 ng·h/mL; Cmax ([2]; male, human, plasma, 100 mg): 556 ng/mL; Tmax ([2]; male, human, plasma, 100 mg): 3 h; concentration at 12 h ([2]; male, human, plasma, 100 mg): 27.8 ng/mL; AUC(0-t) ([2]; male, human, plasma, 200 mg): 4450 ng·h/mL; Cmax ([2]; male, human, plasma, 200 mg): 1200 ng/mL; Tmax ([2]; male, human, plasma, 200 mg): 2 h; concentration at 24 h ([2]; male, human, plasma, 200 mg): 6.04 ng/mL; AUC(0-t) ([2]; male, human, plasma, 300 mg): 4400 ng·h/mL; Cmax ([2]; male, human, plasma, 300 mg): 1380 ng/mL; Tmax ([2]; male, human, plasma, 300 mg): 1.5 h; concentration at 24 h ([2]; male, human, plasma, 300 mg): 9.93 ng/mL; AUC(0-t) ([2]; male, human, plasma, 450 mg): 10200 ng·h/mL; Cmax ([2]; male, human, plasma, 450 mg): 2580 ng/mL; Tmax ([2]; male, human, plasma, 450 mg): 2.5 h; concentration at 24 h ([2]; male, human, plasma, 450 mg): 17.6 ng/mL; half-life ([2]; male, human, plasma, po, elimination half-life, average, oral administration): 6 h; accumulation at steady state ([2]; repeated dosing): no accumulation; time to steady state of plasma concentrations ([2]; repeated dosing, regardless of dose and regimen (once or twice daily)): ≤ 2 days; Effect of sex (on V C/F) ([3]; covariate effect): 2.95 (47.7); Relative increase in bioavailability in RA patients vs healthy volunteers [3]: 0.216 (39.0); ka (first-order absorption rate constant) ([3]; log-transformed parameter): −0.733 (5.64) /h; FRAC300 mg ([3]; probit-transformed parameter, 300 mg dose): 0.375 (23.9); FRAC450 mg ([3]; probit-transformed parameter, 450 mg dose): 0.363 (38.5); log H (hill factor) [4]: 0.680 (27.7); selectivity for JAK1- over JAK2-dependent signaling (JAK1): 30 fold
